The text below walks through data of US9604935B2, “Deuterated phenyl amino pyrimidine compound and pharmaceutical composition containing the same” (Suzhou Zelgen Biopharmaceuticals Co., Ltd., priority 2013, dated 2017).

This data set is described as follows: Pharmacokinetic evaluation in rats. It is filed as in vivo. The settings on record: male, Sprague-Dawley, rat, plasma, po, 3 mg/kg, 3 mg/kg by gavage. As to the method:
12 male Sprague-Dawley rats, 7-8 weeks old, of approximately 200 g body weight, were divided into three groups, four in each group.
Rats were feed with standard feed, and were given water, and were started to fast 16 hours before the test. The drug was dissolved in PEG400 and dimethylsulfoxide. Orbital blood collection was conducted, and the blood collection time is 0.25 hour, 0.5 hour, 1 hour, 2 hour, 4 hour, 6 hour, 8 hour, 12 hour, 24 hour, 36 hour and 48 hour after administration.
After inhalation of ether, the rats were shortly anesthesiaed; 300 μL of blood were collected from orbit into a test tube. There were 30 μL of 1% heparin saline solutions in the test tube. Before use, test tubes were dried overnight at 60° C. After the blood sample was collected in the subsequent time point, rats were anesthetized with ether and sacrificed.
After blood sampling, the tube was gently inverted at least 5 times immediately to ensure adequate mixing, and was placed on ice. Blood samples were 5000 rpm centrifuged at 4° C. for 5 minutes to separate the plasma and red blood cells. 100 μL of plasma was pipetted into a clean plastic centrifuge tube, and the name of compounds and the time point were indicated. Plasma was stored in −80° C. before use for the analysis. The concentration of the compound of the invention in plasma was determined with LC-MS/MS. The pharmacokinetic parameters were calculated based on the blood drug concentration of each animal at different time points.

Where two headings read alike, the source gives them in different places.

In the case of `[2H]C1([2H])COCC([2H])([2H])N1c1ccc(Nc2nccc(-c3ccc(C(=O)NCC#N)cc3)n2)cc1` [example 5, N-(cyanomethyl)-4-(2-(4-(2′,2′,6′,6′-d4-morpholino)phenylamino)pyrimidin-4-yl)benzamide], the area under the curve AUC(0-t) runs as follows: (group G2 (Table 2), mean±SD) 5390 ± 1230 ng·h/mL; (group G2, Mean of 4 rats) 5390 ng·h/mL; (group G2, rat 5) 6820 ng·h/mL; (group G2, rat 6) 5460 ng·h/mL; (group G2, rat 7) 5470 ng·h/mL; (group G2, rat 8) 3810 ng·h/mL. Further, the Cmax reads like this: (group G2 (Table 2), mean±SD) 972 ± 307 ng/mL; (group G2, Mean of 4 rats) 972 ng/mL; (group G2, rat 5) 1410 ng/mL; (group G2, rat 6) 922 ng/mL; (group G2, rat 7) 875 ng/mL; (group G2, rat 8) 686 ng/mL. In addition, the Tmax worked out at 3.5 h (group G2, Mean of 4 rats); 2 h (group G2, rat 5); 4 h (group G2, rat 6); 4 h (group G2, rat 7); 4 h (group G2, rat 8). In addition, the AUC(0-inf) (group G2, Mean of 4 rats, read-out: AUCINF_obs) amounted to 5440 ng·h/mL; the AUC(0-inf) (group G2, rat 5, read-out: AUCINF_obs) was 6850 ng·h/mL; the AUC(0-inf) (group G2, rat 6, read-out: AUCINF_obs) worked out at 5490 ng·h/mL; the AUC(0-inf) (group G2, rat 7, read-out: AUCINF_obs) stood at 5520 ng·h/mL; the AUC(0-inf) (group G2, rat 8, read-out: AUCINF_obs) came out at 3900 ng·h/mL.
On to `[2H]C1([2H])OC([2H])([2H])C([2H])([2H])N(c2ccc(Nc3nccc(-c4ccc(C(=O)NCC#N)cc4)n3)cc2)C1([2H])[2H]` [example 1, N-(cyanomethyl)-4-(2-(4-(d8-morpholino)phenylamino)pyrimidine-4-yl)benzamide], for which the area under the curve AUC(0-t) is, setting by setting: (group G3 (Table 3), mean±SD) 3960 ± 1480 ng·h/mL; (group G3, Mean of 4 rats) 3960 ng·h/mL; (group G3, rat 9) 6170 ng·h/mL; (group G3, rat 10) 3250 ng·h/mL; (group G3, rat 11) 3160 ng·h/mL; (group G3, rat 12) 3240 ng·h/mL. The Cmax is, setting by setting: (group G3 (Table 3), mean±SD) 653 ± 275 ng/mL; (group G3, Mean of 4 rats) 653 ng/mL; (group G3, rat 9) 1060 ng/mL; (group G3, rat 10) 596 ng/mL; (group G3, rat 11) 476 ng/mL; (group G3, rat 12) 483 ng/mL. In addition, the Tmax was determined as 3.5 h (group G3, Mean of 4 rats); 4 h (group G3, rat 9); 4 h (group G3, rat 10); 2 h (group G3, rat 11); 4 h (group G3, rat 12). The AUC(0-inf) reads like this: (group G3, Mean of 4 rats, read-out: AUCINF_obs) 4060 ng·h/mL; (group G3, rat 9, read-out: AUCINF_obs) 6300 ng·h/mL; (group G3, rat 10, read-out: AUCINF_obs) 3370 ng·h/mL; (group G3, rat 11, read-out: AUCINF_obs) 3250 ng·h/mL; (group G3, rat 12, read-out: AUCINF_obs) 3320 ng·h/mL.
